Reference: the NIST ThermoML archive (doi:10.1016/j.jct.2011.08.016)
Numbers after ± are expanded uncertainties.

Assay: xn = mol fraction of the nth substance listed
Conditions: Liquid, Vibrating tube method

CCCCCCCCCC [decane] + CCCCCCC
mass density (363.02 K, 16000 kPa, x2 = 0.777): 658.24 ± 0.53 kg/m3 | mass density (363.02 K, 17000 kPa, x2 = 0.5219): 673.01 ± 0.53 kg/m3 | mass density (363.02 K, 17000 kPa, x2 = 0.777): 659.41 ± 0.54 kg/m3 | mass density (363.02 K, 18000 kPa, x2 = 0.5219): 674.09 ± 0.53 kg/m3 | mass density (363.02 K, 18000 kPa, x2 = 0.777): 660.5 ± 0.55 kg/m3 | mass density (363.02 K, 19000 kPa, x2 = 0.5219): 675.09 ± 0.54 kg/m3 | mass density (363.02 K, 19000 kPa, x2 = 0.777): 661.57 ± 0.56 kg/m3 | mass density (363.02 K, 20000 kPa, x2 = 0.5219): 676.07 ± 0.55 kg/m3 | mass density (363.02 K, 20000 kPa, x2 = 0.777): 662.62 ± 0.57 kg/m3 | mass density (363.02 K, 21000 kPa, x2 = 0.5219): 677.05 ± 0.56 kg/m3 | mass density (363.02 K, 21000 kPa, x2 = 0.777): 663.64 ± 0.57 kg/m3 | mass density (363.02 K, 22000 kPa, x2 = 0.5219): 677.98 ± 0.56 kg/m3 | mass density (363.02 K, 22000 kPa, x2 = 0.777): 664.64 ± 0.58 kg/m3 | mass density (363.02 K, 23000 kPa, x2 = 0.5219): 678.94 ± 0.57 kg/m3 | mass density (363.02 K, 23000 kPa, x2 = 0.777): 665.63 ± 0.59 kg/m3 | mass density (363.02 K, 24000 kPa, x2 = 0.5219): 679.87 ± 0.58 kg/m3 | mass density (363.02 K, 24000 kPa, x2 = 0.777): 666.6 ± 0.6 kg/m3 | mass density (363.02 K, 25000 kPa, x2 = 0.5219): 680.76 ± 0.59 kg/m3 | mass density (363.02 K, 25000 kPa, x2 = 0.777): 667.53 ± 0.61 kg/m3 | mass density (363.03 K, 1000 kPa, x2 = 0.0531): 674.85 ± 0.42 kg/m3 | mass density (363.03 K, 1000 kPa, x2 = 0.952): 627.08 ± 0.44 kg/m3 | mass density (363.03 K, 2000 kPa, x2 = 0.0531): 676.04 ± 0.42 kg/m3 | mass density (363.03 K, 2000 kPa, x2 = 0.952): 628.62 ± 0.44 kg/m3 | mass density (363.03 K, 3000 kPa, x2 = 0.0531): 677.23 ± 0.43 kg/m3 | mass density (363.03 K, 3000 kPa, x2 = 0.952): 630.14 ± 0.45 kg/m3 | mass density (363.03 K, 4000 kPa, x2 = 0.0531): 678.38 ± 0.43 kg/m3 | mass density (363.03 K, 4000 kPa, x2 = 0.952): 631.64 ± 0.46 kg/m3 | mass density (363.03 K, 5000 kPa, x2 = 0.0531): 679.52 ± 0.44 kg/m3 | mass density (363.03 K, 5000 kPa, x2 = 0.952): 633.12 ± 0.46 kg/m3 | mass density (363.03 K, 6000 kPa, x2 = 0.0531): 680.65 ± 0.44 kg/m3 | mass density (363.03 K, 6000 kPa, x2 = 0.952): 634.56 ± 0.47 kg/m3 | mass density (363.03 K, 7000 kPa, x2 = 0.0531): 681.75 ± 0.45 kg/m3 | mass density (363.03 K, 7000 kPa, x2 = 0.952): 635.98 ± 0.48 kg/m3 | mass density (363.03 K, 8000 kPa, x2 = 0.0531): 682.84 ± 0.45 kg/m3 | mass density (363.03 K, 8000 kPa, x2 = 0.952): 637.36 ± 0.48 kg/m3 | mass density (363.03 K, 9000 kPa, x2 = 0.0531): 683.92 ± 0.46 kg/m3 | mass density (363.03 K, 9000 kPa, x2 = 0.952): 638.71 ± 0.49 kg/m3 | mass density (363.03 K, 10000 kPa, x2 = 0.0531): 684.98 ± 0.46 kg/m3 | mass density (363.03 K, 10000 kPa, x2 = 0.952): 640.03 ± 0.5 kg/m3 | mass density (363.03 K, 11000 kPa, x2 = 0.0531): 686.02 ± 0.47 kg/m3 | mass density (363.03 K, 11000 kPa, x2 = 0.952): 641.33 ± 0.51 kg/m3 | mass density (363.03 K, 12000 kPa, x2 = 0.0531): 687.05 ± 0.47 kg/m3 | mass density (363.03 K, 12000 kPa, x2 = 0.952): 642.61 ± 0.51 kg/m3 | mass density (363.03 K, 13000 kPa, x2 = 0.0531): 688.07 ± 0.48 kg/m3 | mass density (363.03 K, 13000 kPa, x2 = 0.952): 643.86 ± 0.52 kg/m3 | mass density (363.03 K, 14000 kPa, x2 = 0.0531): 689.07 ± 0.49 kg/m3 | mass density (363.03 K, 14000 kPa, x2 = 0.952): 645.09 ± 0.53 kg/m3 | mass density (363.03 K, 15000 kPa, x2 = 0.0531): 690.05 ± 0.49 kg/m3 | mass density (363.03 K, 15000 kPa, x2 = 0.952): 646.3 ± 0.54 kg/m3 | mass density (363.03 K, 16000 kPa, x2 = 0.0531): 691.03 ± 0.5 kg/m3 | mass density (363.03 K, 16000 kPa, x2 = 0.952): 647.49 ± 0.55 kg/m3 | mass density (363.03 K, 17000 kPa, x2 = 0.0531): 691.98 ± 0.51 kg/m3 | mass density (363.03 K, 17000 kPa, x2 = 0.952): 648.66 ± 0.55 kg/m3 | mass density (363.03 K, 18000 kPa, x2 = 0.0531): 692.93 ± 0.51 kg/m3 | mass density (363.03 K, 18000 kPa, x2 = 0.952): 649.8 ± 0.56 kg/m3 | mass density (363.03 K, 19000 kPa, x2 = 0.0531): 693.87 ± 0.52 kg/m3 | mass density (363.03 K, 19000 kPa, x2 = 0.952): 650.92 ± 0.57 kg/m3 | mass density (363.03 K, 20000 kPa, x2 = 0.0531): 694.79 ± 0.53 kg/m3 | mass density (363.03 K, 20000 kPa, x2 = 0.952): 652.02 ± 0.58 kg/m3 | mass density (363.03 K, 21000 kPa, x2 = 0.0531): 695.7 ± 0.53 kg/m3 | mass density (363.03 K, 21000 kPa, x2 = 0.952): 653.1 ± 0.59 kg/m3 | mass density (363.03 K, 22000 kPa, x2 = 0.0531): 696.6 ± 0.54 kg/m3 | mass density (363.03 K, 22000 kPa, x2 = 0.952): 654.16 ± 0.6 kg/m3 | mass density (363.03 K, 23000 kPa, x2 = 0.0531): 697.47 ± 0.55 kg/m3 | mass density (363.03 K, 23000 kPa, x2 = 0.952): 655.2 ± 0.6 kg/m3 | mass density (363.03 K, 24000 kPa, x2 = 0.0531): 698.37 ± 0.55 kg/m3 | mass density (363.03 K, 24000 kPa, x2 = 0.952): 656.21 ± 0.61 kg/m3 | mass density (363.03 K, 25000 kPa, x2 = 0.0531): 699.21 ± 0.56 kg/m3 | mass density (363.03 K, 25000 kPa, x2 = 0.952): 657.21 ± 0.62 kg/m3 | mass density (363.06 K, 1000 kPa, x2 = 0.2594): 666.7 ± 0.42 kg/m3 | mass density (363.06 K, 2000 kPa, x2 = 0.2594): 667.89 ± 0.43 kg/m3 | mass density (363.06 K, 3000 kPa, x2 = 0.2594): 669.1 ± 0.43 kg/m3 | mass density (363.06 K, 4000 kPa, x2 = 0.2594): 670.27 ± 0.44 kg/m3 | mass density (363.06 K, 5000 kPa, x2 = 0.2594): 671.44 ± 0.44 kg/m3 | mass density (363.06 K, 6000 kPa, x2 = 0.2594): 672.61 ± 0.45 kg/m3 | mass density (363.06 K, 7000 kPa, x2 = 0.2594): 673.77 ± 0.45 kg/m3 | mass density (363.06 K, 8000 kPa, x2 = 0.2594): 674.91 ± 0.46 kg/m3 | mass density (363.06 K, 9000 kPa, x2 = 0.2594): 676.05 ± 0.46 kg/m3 | mass density (363.06 K, 10000 kPa, x2 = 0.2594): 677.17 ± 0.47 kg/m3 | mass density (363.06 K, 11000 kPa, x2 = 0.2594): 678.26 ± 0.48 kg/m3 | mass density (363.06 K, 12000 kPa, x2 = 0.2594): 679.34 ± 0.48 kg/m3 | mass density (363.06 K, 13000 kPa, x2 = 0.2594): 680.41 ± 0.49 kg/m3 | mass density (363.06 K, 14000 kPa, x2 = 0.2594): 681.46 ± 0.49 kg/m3 | mass density (363.06 K, 15000 kPa, x2 = 0.2594): 682.5 ± 0.5 kg/m3 | mass density (363.06 K, 16000 kPa, x2 = 0.2594): 683.52 ± 0.51 kg/m3 | mass density (363.06 K, 17000 kPa, x2 = 0.2594): 684.53 ± 0.51 kg/m3 | mass density (363.06 K, 18000 kPa, x2 = 0.2594): 685.52 ± 0.52 kg/m3 | mass density (363.06 K, 19000 kPa, x2 = 0.2594): 686.5 ± 0.53 kg/m3 | mass density (363.06 K, 20000 kPa, x2 = 0.2594): 687.43 ± 0.54 kg/m3 | mass density (363.06 K, 21000 kPa, x2 = 0.2594): 688.35 ± 0.54 kg/m3 | mass density (363.06 K, 22000 kPa, x2 = 0.2594): 689.23 ± 0.55 kg/m3 | mass density (363.06 K, 23000 kPa, x2 = 0.2594): 690.14 ± 0.56 kg/m3 | mass density (363.06 K, 24000 kPa, x2 = 0.2594): 691.03 ± 0.56 kg/m3 | mass density (363.06 K, 25000 kPa, x2 = 0.2594): 691.89 ± 0.57 kg/m3
